In patent US20230146455A1, “TREATMENT OF INFLAMMATORY DISEASES WITH PEPTIDES AND PHARMACEUTICAL COMPOSITIONS” (Yuyu Pharma, Inc., priority 2020, published 2023):
Values joined by “and” are separate entries in the source; they are usually repeats but may differ in a detail not shown here. Identical values can stand only once. Where a SMILES comes first, the peptide text is derived from it. [ ]: non-standard residue; d: D form. Hyp = O=C(O)[C@@H]1C[C@@H](O)CN1

Tests used:
[1] = tested on: IL-8; assay: Example 9 Luminex, LPS hPBMCs: IL-8; type: cell-based, human
Method: (§1) Treatment Human PBMCs were pretreated with YY-101, YDE-011 and YDE-043 or reference compound; Xiidra® at various concentration (ranging from 1 nM to 100 uM) for 2 h before stimulation. An equal volume of 0.5% DMSO was used as a vehicle control. Then, the cells were treated with LPS at 5 ug/ml. The supernatants from treated cells were harvested at 24 h and placed in a 96 well for Luminex cytokine & chemokine profiling using a Luminex 200 multiplex assay (Luminex; R&D system, USA).
(§2) The main study arm with triplicate wells per group in a 24-well plate: • 1. Blank • 2. PBMC: 0.5% DMSO • 3. PBMC+LPS (5 ug/ml) • 4. PBMC+YY-101 100 uM • 5. PBMC+YY-101 10 uM • 6. PBMC+YY-101 1 uM • 7. PBMC+YY-101 0.1 uM • 8. PBMC+YY-101 0.01 uM • 9. PBMC+LPS (5 ug/ml)+Xiidra®100 uM • 10. PBMC+LPS (5 ug/ml)+Xiidra® 10 uM • 11. PBMC+LPS (5 ug/ml)+Xiidra® 1 uM • 12. PBMC+LPS (5 ug/ml)+Xiidra®0.1 uM • 13. PBMC+LPS (5 ug/ml)+Xiidra®0.01 uM • 14. PBMC+LPS (5 ug/ml)+Xiidra®0.001 uM • 15. PBMC+LPS (5 ug/ml)+YY-101 100 uM • 16. PBMC+LPS (5 ug/ml)+YY-101 10 uM • 17. PBMC+LPS (5 ug/ml)+YY-101 1 uM • 18. PBMC+LPS (5 ug/ml)+YY-101 0.1 uM • 19. PBMC+LPS (5 ug/ml)+YY-101 0.01 uM • 20. PBMC+LPS (5 ug/ml)+YY-101 0.001 uM • 21. PBMC+LPS (5 ug/ml)+YDE-011 100 uM • 22. PBMC+LPS (5 ug/ml)+YDE-011 10 uM • 23. PBMC+LPS (5 ug/ml)+YDE-011 1 uM • 24. PBMC+LPS (5 ug/ml)+YDE-011 0.1 uM • 25. PBMC+LPS (5 ug/ml)+YDE-011 0.01 uM • 26. PBMC+LPS (5 ug/ml)+YDE-011 0.001 uM • 27. PBMC+LPS (5 ug/ml)+YDE-043 100 uM • 28. PBMC+LPS (5 ug/ml)+YDE-043 10 uM • 29. PBMC+LPS (5 ug/ml)+YDE-043 1 uM • 30. PBMC+LPS (5 ug/ml)+YDE-043 0.1 uM • 31. PBMC+LPS (5 ug/ml)+YDE-043 0.01 uM • 32. PBMC+LPS (5 ug/ml)+YDE-043 0.001 uM
(§3) Multiplex assay was used to measure 30 cytokines and chemokines. The 1:2, 1:10 and 1:200 diluted cell supernatant and serial dilution of the standard were dispensed into a 96 well plate at 50 ul/well. Then, the pre-mixed cocktail of antibody-coated magnetic beads was dispensed at 50 ul/well and incubated at room temperature for 2 h in a horizontal orbital microplate shaker at 800±500 rpm. The beads were washed using a magnetic device to prevent loss. The biotin-antibody was dispensed in 50 ul of each well and incubated at room temperature for 1 h in a shaker at 800±500 rpm. After washing, streptavidin-PE was added at 50 ul/well and incubated at room temperature for 30 min in a shaker under the same conditions. Finally, after washing, wash buffer (100 ul/well) was added to the plate and incubated in a shaker for 2 min. The Luminex™ 200 setting were set according to the manufacturer's protocol. The data was calculated with a standard five-parameter logistic nonlinear regression analysis of the data (xPonent software 4.2, USA). The levels of cytokine/chemokine are normalized to the live cell counts (1×10^5 cells/mL) and presented as concentrations per mL (pg/mL or ng/mL).

[2] = tested on: VEGF-A; assay: Example 9 Luminex, LPS hPBMCs: VEGF-A; type: cell-based, human
Method: as §1, §2, §3

[3] = PBMC + LPS(5 ug/ml) + test article 0.001 uM, Mean
[4] = PBMC + LPS(5 ug/ml) + test article 0.001 uM, single replicates (1st, 2nd, 3rd)
[5] = PBMC + LPS(5 ug/ml) + test article 0.01 uM, Mean
[6] = PBMC + LPS(5 ug/ml) + test article 0.01 uM, single replicates (1st, 2nd, 3rd)
[7] = PBMC + LPS(5 ug/ml) + test article 0.1 uM, Mean
[8] = PBMC + LPS(5 ug/ml) + test article 0.1 uM, single replicates (1st, 2nd, 3rd)
[9] = PBMC + LPS(5 ug/ml) + test article 1 uM, Mean
[10] = PBMC + LPS(5 ug/ml) + test article 1 uM, single replicates (1st, 2nd, 3rd)
[11] = PBMC + LPS(5 ug/ml) + test article 10 uM, Mean
[12] = PBMC + LPS(5 ug/ml) + test article 10 uM, single replicates (1st, 2nd, 3rd)
[13] = PBMC + LPS(5 ug/ml) + test article 100 uM, Mean
[14] = PBMC + LPS(5 ug/ml) + test article 100 uM, single replicates (1st, 2nd, 3rd)
[15] = PBMC + test article 0.01 uM, no LPS, Mean
[16] = PBMC + test article 0.01 uM, no LPS, single replicates (1st, 2nd)
[17] = PBMC + test article 0.1 uM, no LPS, Mean
[18] = PBMC + test article 0.1 uM, no LPS, single replicates (1st, 2nd)
[19] = PBMC + test article 1 uM, no LPS, Mean
[20] = PBMC + test article 1 uM, no LPS, single replicates (1st, 2nd)
[21] = PBMC + test article 10 uM, no LPS, Mean
[22] = PBMC + test article 10 uM, no LPS, single replicates (1st, 2nd)
[23] = PBMC + test article 100 uM, no LPS, Mean
[24] = PBMC + test article 100 uM, no LPS, single replicates (1st, 2nd)
[25] = PBMC + LPS(5 ug/ml) + test article 0.001 uM, single replicates
[26] = PBMC + LPS(5 ug/ml) + test article 0.01 uM, single replicates

## CC(C)C[C@H](NC(=O)CNC(=O)[C@H](CC(=O)O)NC(=O)[C@H](CCC(N)=O)NC(=O)CNC(=O)[C@@H]1C[C@@H](O)CN1)C(=O)N[C@@H](C)C(=O)NCC(=O)N1CCC[C@H]1C(=O)N[C@@H](CCCCN)C(=O)O [YY-101] (H-[Hyp]GQDGLAGPK-OH; N-terminus and C-terminus assumed)
[1]; [3]
  Concentration: 47261.8 pg/mL
  conc/live cell: 7362.6 pg/10^5
[1]; [4]
  Concentration: 45291.5 pg/mL and 44844.4 pg/mL and 51649.5 pg/mL
  conc/live cell: 7945.9 pg/10^5 and 6316.1 pg/10^5 and 7825.7 pg/10^5
[1]; [5]
  Concentration: 45595.7 pg/mL
  conc/live cell: 7399.0 pg/10^5
[1]; [6]
  Concentration: 45499.3 pg/mL and 44844.4 pg/mL and 46443.3 pg/mL
  conc/live cell: 7109.3 pg/10^5 and 7474.1 pg/10^5 and 7613.7 pg/10^5
[1]; [7]
  Concentration: 41918.3 pg/mL
  conc/live cell: 7205.6 pg/10^5
[1]; [8]
  Concentration: 41283.9 pg/mL and 42997.0 pg/mL and 41473.9 pg/mL
  conc/live cell: 6658.7 pg/10^5 and 8268.7 pg/10^5 and 6689.3 pg/10^5
[1]; [9]
  Concentration: 46108.9 pg/mL
  conc/live cell: 7089.9 pg/10^5
[1]; [10]
  Concentration: 45195.7 pg/mL and 45259.6 pg/mL and 47871.4 pg/mL
  conc/live cell: 7173.9 pg/10^5 and 6374.6 pg/10^5 and 7721.2 pg/10^5
[1]; [11]
  Concentration: 46679.5 pg/mL
  conc/live cell: 7101.0 pg/10^5
[1]; [12]
  Concentration: 46315.2 pg/mL and 50742.2 pg/mL and 42981.1 pg/mL
  conc/live cell: 7719.2 pg/10^5 and 7928.5 pg/10^5 and 5655.4 pg/10^5
[1]; [13]
  Concentration: 46500.3 pg/mL
  conc/live cell: 8028.8 pg/10^5
[1]; [14]
  Concentration: 48337.8 pg/mL and 46988.3 pg/mL and 44174.7 pg/mL
  conc/live cell: 7672.7 pg/10^5 and 7578.8 pg/10^5 and 8834.9 pg/10^5
[1]; [15]
  Concentration: 4859.1 pg/mL
  conc/live cell: 989.4 pg/10^5
[1]; [16]
  Concentration: 2863.8 pg/mL and 6854.4 pg/mL
  conc/live cell: 550.7 pg/10^5 and 1428.0 pg/10^5
[1]; [17]
  Concentration: 4413.2 pg/mL
  conc/live cell: 835.0 pg/10^5
[1]; [18]
  Concentration: 2701.4 pg/mL and 6125.1 pg/mL
  conc/live cell: 614.0 pg/10^5 and 1056.0 pg/10^5
[1]; [19]
  Concentration: 4580.5 pg/mL
  conc/live cell: 832.8 pg/10^5
[1]; [20]
  Concentration: 4461.8 pg/mL and 4699.1 pg/mL
  conc/live cell: 811.2 pg/10^5 and 854.4 pg/10^5
[1]; [21]
  Concentration: 21138.7 pg/mL
  conc/live cell: 3322.0 pg/10^5
[1]; [22]
  Concentration: 37311.2 pg/mL and 4966.2 pg/mL
  conc/live cell: 5829.9 pg/10^5 and 814.1 pg/10^5
[1]; [23]
  Concentration: 15311.8 pg/mL
  conc/live cell: 2320.9 pg/10^5
[1]; [24]
  Concentration: 19929.7 pg/mL and 10693.9 pg/mL
  conc/live cell: 3114.0 pg/10^5 and 1527.7 pg/10^5
[2]; [3]
  Concentration, Bead name: VEGF-A: 3.0 pg/mL
  MFI, Bead name: VEGF-A: −0.9
  conc/live cell, Bead name: VEGF-A: 0.4 pg/10^5
[2]; [25]
  Concentration, Bead name: VEGF-A: 2.2 pg/mL and 6.1 pg/mL and 0.6 pg/mL
  MFI, Bead name: VEGF-A: −1.3 and 0.3 and −1.8
  conc/live cell, Bead name: VEGF-A: 0.4 pg/10^5 and 0.9 pg/10^5 and 0.1 pg/10^5
[2]; [5]
  Concentration, Bead name: VEGF-A: 0.6 pg/mL
  MFI, Bead name: VEGF-A: −3.1
  conc/live cell, Bead name: VEGF-A: 0.0 pg/10^5
[2]; [26]
  Concentration, Bead name: VEGF-A: 0.6 pg/mL
  MFI, Bead name: VEGF-A: −1.8 and −3.8 (2×)
